In publication PMC7230911, “Meroterpenoids from the Brown Alga Cystoseira usneoides as Potential Anti-Inflammatory and Lung Anticancer Agents” (Marine Drugs, 2020):

Key:
COX-2 = COX-2 protein expression in LPS-stimulated THP-1 macrophages (western blot); assay type: cell-based, human; conditions: 1 h pretreatment, then LPS 1 μg/mL 24 h
Protocol: COX-2 is the key enzyme regulating the production of prostaglandins, which are the central mediators of inflammation. On the other hand, iNOS enzyme represents an important molecular target closely involved in inflammatory responses. Thus, the effect of the AMTs 1–8 on LPS-induced COX-2 and iNOS protein expression was investigated by western blot analysis.
Figure 3 Effect of meroterpenoids 1–8 on LPS-induced COX-2 and iNOS protein expression in THP-1 macrophages. Cells were pretreated for 1 h with the compounds (1, 2, 3, 4, 7, and 8 at 8 μg/mL; 5 and 6 at 4 μg/mL) and then stimulated with LPS (1 μg/mL). Cytosolic lysates from 24 h-stimulated cells were separated on 10% SDS-PAGE. COX-2, iNOS, and β-actin were detected by western blot analysis. Data are expressed as means ± SE from three independent experiments. Statistical significance is indicated (+++ p < 0.001 and ++ p < 0.01, vs. Control, respectively; * p < 0.05, and ** p < 0.01 vs. Control + LPS).
Western blotting was used to measure the protein levels of COX-2 and iNOS [65]. THP-1 macrophages were plated at a density of 1 × 10^6 cells/mL in six-well plates, treated for 1 h with compounds 1–8 (8 μg/mL for compounds 1, 2, 3, 4, 7, and 8, and 4 μg/mL for compounds 5 and 6), and then stimulated with 1 μg/mL of LPS in medium at 37 °C. After 24 h, the cells were washed with ice-cold PBS, collected, suspended in the lysis buffer (250 mM NaCl, 50 mM Tris (pH 7.5), 0.5 mM EDTA, 5 mM EGTA, 8 mM MgCl2, 1 mM PMSF, 0.01 mg/mL pepstatin A, 0.01 mg/mL leupeptin, 0.01 mg/mL aprotinin, 1% Triton X-100) and centrifuged at 12,000× g at 4 °C for 3 min to yield cell lysates. Proteins concentration in cell lysates was determined by Bio-Rad Protein Assay, based on the method of Bradford (BioRad, Richmond CA, USA). Cytosolic proteins (50 μg) were separated with 10% SDS-polyacrylamide gel electrophoresis and transferred on PVDF membranes. The membranes were then blocked with 5% (w/v) non-fat dry milk in Tris-buffered saline containing 0.1% Tween-20 (pH 7.4) (TBST) buffer at room temperature for 1 h. The membranes were washed three times (10 min) in TBST buffer and incubated with specific primary antibodies anti-COX-2 (1:3000) or anti-iNOS (1:1000) diluted in 5% (w/v) non-fat dry milk in TBST buffer, at 4 °C overnight. Then, the membranes were incubated with peroxidase-conjugated […] goat anti-rabbit IgG (1: 1000) for 1 h at room temperature. To ascertain that blots were loaded with equal amounts of protein lysates, they were also incubated in the presence of the antibody against β-actin protein (1:10,000). After washing the membrane again with TBST buffer (10 min) three times, the antibody was visualized using an enhanced chemiluminescence light-detecting kit (Super-Signal West Pico Chemiluminescent Substrate, Pierce, IL, USA), according to the manufacturer’s instructions and exposed to an X-ray film (GE Healthcare Ltd., Amersham, UK). The protein band densities were quantified using a Scientific Imaging Systems (Biophotonics ImageJ Analysis Software, National Institute of Mental Health, Bethesda, MD, USA).

TNF-α = TNF-α production in LPS-stimulated THP-1 macrophages (ELISA); assay type: cell-based; conditions: Homo sapiens, 1 h pretreatment, then LPS 1 μg/mL 24 h; for inhibition at 8 µg/mL: 8 μg/mL; for inhibition at 4 µg/mL: 4 μg/mL
Protocol: To determine the effects of the AMTs 1–8 on the production of TNF-α, IL-6, and IL-1β, THP-1 macrophaghes were pretreated with the compounds and then stimulated with LPS, as the triggering factor to stimulate the cytokines production. The levels of pro-inflammatory cytokines in the cell supernatants were determined using the enzyme-linked immunosorbent (ELISA) kits.
Figure 2 Meroterpenoids 1–8 inhibit LPS-induced expression of TNF-α, IL-6, and IL-1β in THP-1 macrophages (A, B, and C) respectively. Cells were pretreated for 1 h with the compounds (1, 2, 3, 4, 7, and 8 at 8 μg/mL; 5 and 6 at 4 μg/mL), followed by 24 h treatment with LPS. TNF-α (A), IL-6 (B) and IL-1β (C) contents in the culture medium were determined by ELISA. Dexametasone (DEX) was used as positive control. Data are expressed as means ± SE from three independent experiments. Statistical significance is indicated (+++p < 0.001 and +++< 0.01 vs. Control; respectively * p < 0.05, ** p < 0.01, *** p < 0.001 vs. Control + LPS).
THP-1 cells were plated at a density of 3 × 10^5 cells/mL in 24-well plates and incubated with PMA (0.2 μM) for 72 h in a humidified atmosphere of 5% CO2 at 37 °C. The macrophages were pre-treated for 1 h with AMTs 1–8 (8 μg/mL for compounds 1, 2, 3, 4, 7, and 8, and 4 μg/mL for 5 and 6) and then stimulated with lipopolysaccharide (LPS, 1 μg/mL) for another 24 h. Dexamethasone (Dex) was used as positive reference compound at 1 μM. The viability of cells was greater than 95% throughout the experiment. The levels of TNF-α, IL-6, and IL-1ß in supernatants were measured with enzyme-linked immune-sorbent assay (ELISA) kits (Diaclone GEN-PROBE, Besançon cedex, France) according to the manufacturer’s protocols. The absorbance was determined at 450 nm using a microplate reader. To calculate the concentration of cytokines, a standard curve was constructed using serial dilutions of cytokine standards provided with the kit.

COc1c(C)cc(O)cc1C/C=C(\C)CC(=O)/C=C(/C)CCCC(C)(O)C(=O)/C=C/C(C)(C)O (stereo not shown) [Compound 1, usneoidone Z]
effect on expression of COX-2 (in words) (COX-2; 8 μg/mL): no significant effect | inhibition at 8 µg/mL (TNF-α): 73.1%

COc1c(C)cc(O)cc1C/C=C(\C)CC(=O)/C=C(\C)CCCC(C)(O)C(=O)/C=C/C(C)(C)O (stereo not shown) [Compound 2, 11-hydroxy-1’-O-methylamentadione]
effect on expression of COX-2 (in words) (COX-2; 8 μg/mL): significantly down-regulated | inhibition at 8 µg/mL (TNF-α): 64.1%

COc1c(C)cc(O)cc1C/C=C(\C)CC(=O)/C=C(\C)CCCC(C)=O [Compound 3, cystomexicone B]
decrease of COX-2 levels (COX-2; 8 μg/mL): 53.35% | inhibition at 8 µg/mL (TNF-α): 57.1%

COc1c(C)cc(O)cc1C/C=C(\C)CC(=O)/C=C(/C)CCCC(C)=O [Compound 4, cystomexicone A]
effect on expression of COX-2 (in words) (COX-2; 8 μg/mL): significantly down-regulated | inhibition at 8 µg/mL (TNF-α): 42.2 to 43.3%

COc1c(C)cc(O)cc1C/C=C(\C)CC(=O)/C=C(/C)CCCC(C)C(=O)/C=C/C(C)(C)O (stereo not drawn) [Compound 5, 6-cis-amentadione-1′-methyl ether]
decrease of COX-2 levels (COX-2; 4 μg/mL): 53.52% | inhibition at 4 µg/mL (TNF-α): 55.3%

COc1c(C)cc(O)cc1C/C=C(\C)CC(=O)/C=C(\C)CCCC(C)C(=O)/C=C/C(C)(C)O (stereo not shown) [Compound 6, amentadione-1′-methyl ether]
decrease of COX-2 levels (COX-2; 4 μg/mL): 64.23% | inhibition at 4 µg/mL (TNF-α): 42.2 to 43.3%

COc1c(C)cc(O)cc1/C=C/C(C)(O)CC(=O)/C=C(/C)CCCC(C)C(=O)/C=C/C(C)(C)O (stereo not shown) [Compound 7, cystodione A]
decrease of COX-2 levels (COX-2; 8 μg/mL): 58.05% | inhibition at 8 µg/mL (TNF-α): 42.2 to 43.3%

COc1c(C)cc(O)cc1/C=C/C(C)(O)CC(=O)/C=C(\C)CCCC(C)C(=O)/C=C/C(C)(C)O (stereo not shown) [Compound 8, cystodione B]
effect on expression of COX-2 (in words) (COX-2; 8 μg/mL): no significant effect | inhibition at 8 µg/mL (TNF-α): 52.6%
